Values quoted from earlier work, collected in US12565477B2, “Preparation method for chlorinated compound” (JIANGSU KANION PHARMACEUTICAL CO., LTD., priority 2020, dated 2026).
“Also recorded” adds a separate entry of the source. Like-named read-outs stand apart in the source and are kept apart here.

What was measured:
[1] = human; for Percentage of administered dose: 0-144 h, after Lesinurad; for Metabolites found in humans after Lesinurad administration (in words): clinical data
[2] = Hepatocyte, Dog, in vitro
[3] = Hepatocyte, Rat, in vitro
[4] = Liver microsome, Monkey, in vitro
[5] = Hepatocyte, Monkey, in vitro
[6] = Liver microsome, Human, in vitro
URAT1 = target: T1, URAT1 (Homo sapiens, UniProt Q96S37)
T1 construct: URAT1 is an important kidney anion transporter located on the brush border membrane of epithelial cells of renal tubules; host or cells: kidney of treated patients (endogenous)
T1 sequence (Q96S37 1-553): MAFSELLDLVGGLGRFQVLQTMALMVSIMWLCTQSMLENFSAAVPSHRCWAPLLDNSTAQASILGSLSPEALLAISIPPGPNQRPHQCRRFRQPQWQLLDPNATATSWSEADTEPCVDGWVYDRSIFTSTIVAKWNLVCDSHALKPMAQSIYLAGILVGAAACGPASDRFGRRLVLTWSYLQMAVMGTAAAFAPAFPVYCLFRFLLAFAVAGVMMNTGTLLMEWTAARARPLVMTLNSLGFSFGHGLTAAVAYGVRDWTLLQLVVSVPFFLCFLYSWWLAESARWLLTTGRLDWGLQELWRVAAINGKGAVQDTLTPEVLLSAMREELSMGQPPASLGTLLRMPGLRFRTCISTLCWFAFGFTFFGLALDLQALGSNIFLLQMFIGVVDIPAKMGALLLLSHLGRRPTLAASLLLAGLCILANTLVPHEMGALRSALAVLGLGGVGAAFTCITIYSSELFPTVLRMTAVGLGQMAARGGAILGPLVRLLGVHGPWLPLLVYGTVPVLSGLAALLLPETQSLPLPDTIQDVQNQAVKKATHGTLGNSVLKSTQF

[7] = Hepatocyte, Human, in vitro
[8] = Liver microsome, Dog, in vitro
[9] = Liver microsome, Rat, in vitro

Percentage of administered dose ([1]; Feces) [%] | Percentage of administered dose ([1]; Urine) [%] | Share of M3, M4 and Lesinurad detected (Total 100) [2] | Share of M3, M4 and Lesinurad detected (Total 100) [3] | Share of M3, M4 and Lesinurad detected (Total 100) [4] [%] | Share of M3, M4 and Lesinurad detected (Total 100) [5] [%] | Share of M3, M4 and Lesinurad detected (Total 100) [6] [%] | Additional effect of combined medication versus xanthine oxidase inhibitor alone (URAT1; Lesinurad 200 mg/day with XOI) | Additional effect of combined medication (URAT1; Lesinurad 400 mg/day (high dose) with XOI) | Share of M3, M4 and Lesinurad detected (Total 100) [7] [%] | Share of M3, M4 and Lesinurad detected (Total 100) [8] [%] | Share of M3, M4 and Lesinurad detected (Total 100) [9] [%] | SMILES | Metabolites found in humans after Lesinurad administration (in words) [1] | Toxic side effects (kidney-related adverse events, especially kidney stone) (URAT1; Lesinurad 400 mg/day)
4.8 | 0.3 | – | – | – | – | – | – | – | – | – | – | O=C(O)CSc1nncn1-c1ccc(C2CC2)c2ccccc12 [Compound M2] | – | –
0.3 | 12.0 | not detected | not detected | 7.9 | – | – | – | – | – | – | – | O=C(O)CSc1nnc(Br)n1-c1ccc(C2(O)CC2)c2ccccc12 [Compound M3] | most predominant metabolites | –
5.0 | 15.7 | not detected | not detected | – | – | – | – | – | – | – | – | O=C(O)CSc1nnc(Br)n1-c1ccc(C2CC2)c2c1C=CC(O)C2O (stereo not drawn) [Compound M4] | specifically detected in human metabolites; also recorded: most predominant metabolites | –
3.6 | – | – | – | – | – | – | – | – | – | – | – | O=C(O)CSc1nncn1-c1ccc(C2(O)CC2)c2ccccc12 [Compound M5] | – | –
1.5 | 31.3 | 100% | 100% | 92.1 | 98.1 | 100 | not very significant | higher additional effect | 92.1 | 100 | 100 | O=C(O)CSc1nnc(Br)n1-c1ccc(C2CC2)c2ccccc12 [Lesinurad] | – | significantly increased toxic side effects
